From ChEMBL document CHEMBL3751822, “C1C2-linker substituted 1,5-naphthyridine analogues of oxabicyclooctane-linked NBTIs as broad-spectrum antibacterial agents (part 7)” (Medchemcomm, 2015) come the findings set out here.

Converted amounts (≈) assume the structure as drawn. Some results are limits rather than exact numbers.

For experiment [1], the system named is Staphylococcus aureus. The experiment is described as follows: Antibacterial activity against Staphylococcus aureus Smith by micro-broth dilution method. It counts as functional.
The test system of experiment [2] is Staphylococcus aureus. Description: Antibacterial activity against methicillin resistant Staphylococcus aureus OIT971 by micro-broth dilution method. It counts as functional. On the technique in general: In broth dilution the organism is exposed to a series of concentrations in liquid medium.
The next experiment deals with Streptococcus pneumoniae. Description: Antibacterial activity against Streptococcus pneumoniae IID553 by micro-broth dilution method. In kind it is functional.
For a further experiment, the system named is Enterococcus faecium. The experiment is described as follows: Antibacterial activity against Enterococcus faecium VanA by micro-broth dilution method. In kind it is functional.
For the next experiment, the system named is Escherichia coli. The experiment is described as follows: Antibacterial activity against Escherichia coli ATCC 25922 by micro-broth dilution method. It counts as functional.
The next experiment has as its system Acinetobacter baumannii. Description: Antibacterial activity against Acinetobacter baumannii IID876 by micro-broth dilution method. In kind it is functional.
For a further experiment, the system named is Pseudomonas aeruginosa. The experiment is described as follows: Antibacterial activity against Pseudomonas aeruginosa PAO1 by micro-broth dilution method. In kind it is functional.
The target in experiment [3] is Voltage-gated inwardly rectifying potassium channel KCNH2 (Homo sapiens, UniProt Q12809). The experiment is described as follows: Displacement of MK499 from human ERG.
Sequence of Voltage-gated inwardly rectifying potassium channel KCNH2 (Q12809 whole entry): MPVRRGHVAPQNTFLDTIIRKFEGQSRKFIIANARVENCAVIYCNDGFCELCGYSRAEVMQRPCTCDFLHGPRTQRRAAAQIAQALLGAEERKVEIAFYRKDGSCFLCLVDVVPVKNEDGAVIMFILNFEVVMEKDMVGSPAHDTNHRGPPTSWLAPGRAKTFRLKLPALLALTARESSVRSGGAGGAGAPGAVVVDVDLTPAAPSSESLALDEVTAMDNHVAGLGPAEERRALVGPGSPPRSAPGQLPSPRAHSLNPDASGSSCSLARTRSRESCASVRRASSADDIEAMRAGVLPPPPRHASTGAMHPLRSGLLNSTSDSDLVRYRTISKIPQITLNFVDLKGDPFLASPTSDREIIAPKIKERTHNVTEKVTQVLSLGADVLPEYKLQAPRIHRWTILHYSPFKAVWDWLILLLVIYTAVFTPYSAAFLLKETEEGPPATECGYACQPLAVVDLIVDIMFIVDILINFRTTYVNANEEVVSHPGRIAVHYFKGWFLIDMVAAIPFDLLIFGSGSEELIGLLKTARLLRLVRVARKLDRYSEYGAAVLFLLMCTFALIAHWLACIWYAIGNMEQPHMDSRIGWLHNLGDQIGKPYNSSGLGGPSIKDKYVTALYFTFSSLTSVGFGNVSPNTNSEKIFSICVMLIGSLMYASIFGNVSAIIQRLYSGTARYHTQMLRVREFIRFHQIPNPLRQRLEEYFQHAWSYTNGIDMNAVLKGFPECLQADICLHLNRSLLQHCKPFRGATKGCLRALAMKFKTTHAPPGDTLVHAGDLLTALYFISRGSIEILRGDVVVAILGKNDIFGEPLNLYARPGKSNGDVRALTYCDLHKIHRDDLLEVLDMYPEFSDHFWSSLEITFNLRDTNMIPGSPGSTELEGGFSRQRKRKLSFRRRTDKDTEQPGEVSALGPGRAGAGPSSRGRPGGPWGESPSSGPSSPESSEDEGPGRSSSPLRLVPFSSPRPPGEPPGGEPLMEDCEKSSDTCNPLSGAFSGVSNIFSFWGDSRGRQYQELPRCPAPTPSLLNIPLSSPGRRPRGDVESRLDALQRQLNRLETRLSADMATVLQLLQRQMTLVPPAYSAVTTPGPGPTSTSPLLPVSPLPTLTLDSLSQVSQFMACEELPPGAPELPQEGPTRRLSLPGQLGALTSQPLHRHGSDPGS
Experiment [4] concerns Staphylococcus aureus. The experiment is described as follows: Ratio of MIC for quinolone-resistant Staphylococcus aureus MS5935 to MIC for quinolone-sensitive Staphylococcus aureus MS5935. It counts as functional.
Setting [5] is: Staphylococcus aureus, Smith, read-out: MIC.
[6] abbreviates: Staphylococcus aureus, OIT971, read-out: MIC.
Setting [7] is: Streptococcus pneumoniae, IID553, read-out: MIC.
Where [8] appears, read: Enterococcus faecium, VanA, read-out: MIC.
[9] abbreviates: Escherichia coli, ATCC 25922, read-out: MIC.
[10] abbreviates: Acinetobacter baumannii, IID876, read-out: MIC.
Where [11] appears, read: Pseudomonas aeruginosa, PAO1, read-out: MIC.

The term MIC denotes the least concentration at which growth counts as inhibited. By IC50 is commonly meant the concentration at which inhibition is half-maximal. A lower IC50 goes with higher potency. For the compound `COc1ccc2ncc(F)c(C(CC34CCC(NCc5ccc6c(n5)NC(=O)CO6)(CC3)CO4)C(=O)O)c2n1` (racemic), the MIC was 1 mg/L (≈ 1.86 µM) with Staphylococcus aureus [1] (setting [5]); 1 mg/L (≈ 1.86 µM) in the experiment on Staphylococcus aureus [2] (setting [6]); 4 mg/L (≈ 7.44 µM) in the experiment with Streptococcus pneumoniae (setting [7]); 32 mg/L (≈ 59.5 µM) with Enterococcus faecium (setting [8]); 32 mg/L (≈ 59.5 µM) in the experiment with Escherichia coli (setting [9]); 32 mg/L (≈ 59.5 µM) with Acinetobacter baumannii (setting [10]). Besides, the MIC in the experiment with Pseudomonas aeruginosa (setting [11]) worked out at 32 mg/L (≈ 59.5 µM). In addition, the IC50 in experiment [3] turned out to be 1 µM. Further, the Ratio in the experiment with Staphylococcus aureus [4] is listed as <4.

As to `CO/N=C(/Cc1c(F)cnc2ccc(OC)nc12)C12CCC(NCc3ccc4c(n3)NC(=O)CO4)(CC1)CO2`, the MIC in the experiment on Staphylococcus aureus [1] (setting [5]), in the experiment on Staphylococcus aureus [2] (setting [6]), in the experiment with Streptococcus pneumoniae (setting [7]), in the experiment with Enterococcus faecium (setting [8]), with Escherichia coli (setting [9]) and in the experiment on Acinetobacter baumannii (setting [10]) was 16 mg/L (≈ 29.8 µM) in each case. For the same compound, the MIC in the experiment on Pseudomonas aeruginosa (setting [11]) was determined as 16 mg/L (≈ 29.8 µM). The IC50 in experiment [3] was found to be 2.5 µM. Further, in the experiment on Staphylococcus aureus [4], the Ratio is on record as <4.

Regarding `COc1ccc2ncc(F)c([C@H]3OC(=O)O[C@@H]3C34CCC(NCc5ccc6c(n5)NC(=O)CO6)(CC3)CO4)c2n1` (single isomer, unassigned; (+)), the MIC in the experiment with Staphylococcus aureus [1] (setting [5]) was found to be 2 mg/L (≈ 3.63 µM); with Staphylococcus aureus [2] (setting [6]) it was 2 mg/L (≈ 3.63 µM); with Streptococcus pneumoniae (setting [7]), 16 mg/L (≈ 29 µM); in the experiment on Enterococcus faecium (setting [8]), 16 mg/L (≈ 29 µM); in the experiment with Escherichia coli (setting [9]) it was 16 mg/L (≈ 29 µM); in the experiment with Acinetobacter baumannii (setting [10]) it was 16 mg/L (≈ 29 µM). Besides, the MIC in the experiment with Pseudomonas aeruginosa (setting [11]) was 16 mg/L (≈ 29 µM). In [3], this compound had an IC50 of 11.2 µM. The Ratio with Staphylococcus aureus [4] was <4.

On to `COc1ccc2ncc(F)c(C(O)CC34CCC(NCc5ccc6c(n5)NC(=O)CO6)(CC3)CO4)c2n1` (single isomer, unassigned; (-)), for which the MIC against Staphylococcus aureus [1] was 0.03 mg/L (≈ 0.0589 µM); in the experiment on Staphylococcus aureus [2], 0.03 mg/L (≈ 0.0589 µM); in the experiment on Streptococcus pneumoniae, 0.25 mg/L (≈ 0.491 µM); with Enterococcus faecium, 2 mg/L (≈ 3.93 µM); in the experiment on Escherichia coli, 4 mg/L (≈ 7.85 µM); in the experiment on Acinetobacter baumannii, 1 mg/L (≈ 1.96 µM). The MIC in the experiment on Pseudomonas aeruginosa worked out at 16 mg/L (≈ 31.4 µM). Besides, the half-inhibitory concentration (IC50) in experiment [3] turned out to be 1.3 µM.

Turning to `COc1ccc2ncc(F)c(C(O)CC34CCC(NCc5ccc6c(n5)NC(=O)CO6)(CC3)CO4)c2n1` (single isomer, unassigned; (+)), the MIC against Staphylococcus aureus [1] amounted to 0.13 mg/L (≈ 0.255 µM); in the experiment on Staphylococcus aureus [2], 0.13 mg/L (≈ 0.255 µM); with Streptococcus pneumoniae, 1 mg/L (≈ 1.96 µM); in the experiment on Enterococcus faecium (setting [8]) it was 4 mg/L (≈ 7.85 µM); in the experiment with Escherichia coli (setting [9]), 8 mg/L (≈ 15.7 µM); in the experiment on Acinetobacter baumannii (setting [10]) it was 1 mg/L (≈ 1.96 µM). Besides, the MIC in the experiment with Pseudomonas aeruginosa (setting [11]) is 16 mg/L (≈ 31.4 µM). The compound further returned an IC50 in [3] of 4 µM. The Ratio with Staphylococcus aureus [4] was <4.

Take `COc1ccc2ncc(F)c(C/C(=N\O)C34CCC(NCc5ccc6c(n5)NC(=O)CO6)(CC3)CO4)c2n1`: the MIC with Staphylococcus aureus [1] (setting [5]) came out at 0.5 mg/L (≈ 0.957 µM); in the experiment with Staphylococcus aureus [2] (setting [6]), 0.5 mg/L (≈ 0.957 µM); in the experiment with Streptococcus pneumoniae (setting [7]), 2 mg/L (≈ 3.83 µM); with Enterococcus faecium (setting [8]), 2 mg/L (≈ 3.83 µM); with Escherichia coli (setting [9]), 2 mg/L (≈ 3.83 µM); in the experiment with Acinetobacter baumannii (setting [10]), 2 mg/L (≈ 3.83 µM). In addition, in the experiment with Pseudomonas aeruginosa (setting [11]), the MIC worked out at 2 mg/L (≈ 3.83 µM). In addition, the IC50 in [3] is 1.6 µM. The Ratio in the experiment on Staphylococcus aureus [4] is reported as <4.

Regarding `COc1ccc2ncc(F)c(C/C(=N/O)C34CCC(NCc5ccc6c(n5)NC(=O)CO6)(CC3)CO4)c2n1`, the MIC in the experiment on Staphylococcus aureus [1] (setting [5]), in the experiment with Staphylococcus aureus [2] (setting [6]), in the experiment on Streptococcus pneumoniae (setting [7]), in the experiment on Enterococcus faecium (setting [8]), in the experiment on Escherichia coli (setting [9]) and in the experiment on Acinetobacter baumannii (setting [10]) was 16 mg/L (≈ 30.6 µM) throughout. Also, the minimum inhibitory concentration (MIC) with Pseudomonas aeruginosa (setting [11]) was 16 mg/L (≈ 30.6 µM). The compound further registered an IC50 in experiment [3] of 5.4 µM. Moreover, in the experiment on Staphylococcus aureus [4], the Ratio is <4.

Consider `COc1ccc2ncc(F)c(CC(N)C34CCC(NCc5ccc6c(n5)NC(=O)CO6)(CC3)CO4)c2n1` (single isomer, unassigned; (-)), for which the MIC in the experiment with Staphylococcus aureus [1] was 0.13 mg/L (≈ 0.256 µM); with Staphylococcus aureus [2], 0.13 mg/L (≈ 0.256 µM); in the experiment on Streptococcus pneumoniae, 2 mg/L (≈ 3.93 µM); against Enterococcus faecium, 4 mg/L (≈ 7.87 µM); in the experiment on Escherichia coli, 1 mg/L (≈ 1.97 µM); in the experiment on Acinetobacter baumannii, 0.25 mg/L (≈ 0.492 µM). In addition, in the experiment on Pseudomonas aeruginosa, the minimal inhibitory concentration (MIC) amounted to 8 mg/L (≈ 15.7 µM).

Consider `COc1ccc2ncc(F)c(CC(C)(O)C34CCC(NCc5ccc6c(n5)NC(=O)CO6)(CC3)CO4)c2n1` (racemic), for which the MIC worked out at 0.06 mg/L (≈ 0.115 µM) in the experiment on Staphylococcus aureus [1] (setting [5]); 0.06 mg/L (≈ 0.115 µM) in the experiment on Staphylococcus aureus [2] (setting [6]); 0.5 mg/L (≈ 0.955 µM) in the experiment with Streptococcus pneumoniae (setting [7]); 4 mg/L (≈ 7.64 µM) with Enterococcus faecium (setting [8]); 8 mg/L (≈ 15.3 µM) in the experiment with Escherichia coli (setting [9]); 2 mg/L (≈ 3.82 µM) in the experiment with Acinetobacter baumannii (setting [10]). Besides, in the experiment on Pseudomonas aeruginosa (setting [11]), the MIC was determined as 32 mg/L (≈ 61.1 µM). In experiment [3], the concentration for half-maximal inhibition (IC50) was 6.1 µM. In the experiment on Staphylococcus aureus [4], the Ratio is listed as <4.

Regarding `COc1ccc2ncc(F)c([C@H](O)[C@@H](O)C34CCC(NCc5ccc6c(n5)NC(=O)CO6)(CC3)CO4)c2n1` (single isomer, unassigned; (-)), the MIC in the experiment on Staphylococcus aureus [1] (setting [5]) stood at 1 mg/L (≈ 1.9 µM); in the experiment with Staphylococcus aureus [2] (setting [6]), 1 mg/L (≈ 1.9 µM); in the experiment on Streptococcus pneumoniae (setting [7]), 8 mg/L (≈ 15.2 µM); in the experiment on Enterococcus faecium (setting [8]), 16 mg/L (≈ 30.4 µM); in the experiment with Escherichia coli (setting [9]), 16 mg/L (≈ 30.4 µM); in the experiment with Acinetobacter baumannii (setting [10]) it was 2 mg/L (≈ 3.81 µM). The MIC with Pseudomonas aeruginosa (setting [11]) was found to be 64 mg/L (≈ 122 µM). The same compound came in with an IC50 in experiment [3] of 36.1 µM. Further, in the experiment on Staphylococcus aureus [4], the Ratio is on record as <4.

Consider `COc1ccc2ncc(F)c(C[C@H](OC)C34CCC(NCc5ccc6c(n5)NC(=O)CO6)(CC3)CO4)c2n1`, for which the MIC in the experiment on Staphylococcus aureus [1] (setting [5]) came out at 0.25 mg/L (≈ 0.477 µM); with Staphylococcus aureus [2] (setting [6]) it was 0.25 mg/L (≈ 0.477 µM); with Streptococcus pneumoniae (setting [7]), 2 mg/L (≈ 3.82 µM); with Enterococcus faecium (setting [8]) it was 8 mg/L (≈ 15.3 µM); with Escherichia coli (setting [9]) it was 16 mg/L (≈ 30.6 µM); in the experiment on Acinetobacter baumannii (setting [10]), 8 mg/L (≈ 15.3 µM). In the experiment with Pseudomonas aeruginosa (setting [11]), the MIC was 16 mg/L (≈ 30.6 µM).
